Source: US20020031520A1, “PREVENTION AND TREATMENT OF HEPATOCELLULAR CANCER” (priority 1997, published 2002)
Where no end group is shown, it is not given here.

Key:
[1] = tested on: T2 cells pulsed with the specific peptide; conditions: FIG. 2; T2 pulsed with specific peptide versus a different HLA A2.1 binding peptide
[2] = tested on: M202 (HLA A2.1+/AFP-) melanoma cells transduced with AdVhAFP; experiment: chromium release assay of peptide-specific CTL against M202 cells transduced with AdVhAFP or control AdVRR5; assay type: cell-based, human; conditions: FIG. 2
[3] = tested on: AFP+/HLA A2.1+ HepG2; experiment: 4 hour 51Cr-release assay of peptide-generated CTL against HepG2; assay type: cell-based, human
Experimental: IL-2 was added twice weekly at 10 units/ml. […] Non-specific NK killing was assessed with the NK sensitive target K562. The CTL were also tested against the HLA A2.1-positive, AFP-positive human hepatocellular carcinoma cell line, HepG2. Referring now to Table III, there are shown the cytotoxicity results of tests for the twelve AFP peptide sequences used to generate CTL from normal donors that gave positive peptide cytotoxicity results. […] Further, new AFP49 peptide-generated CTL cultures were made using two different, normal HLA A2.1 donors. Additional targets were used to confirm that the cytotoxicity observed using AFP49 was AFP antigen-specific and class I restricted. Referring now to FIG. 1, there is shown representative data of these tests. First, to confirm that the observed cytotoxicity was class I restricted, anti-β2 microglobulin antibody was used to block the CTL-T cell receptor interaction on HepG2 cells. […] Next, to eliminate non-specific NK/LAK killing, a 40-fold excess of unlabeled (cold) K562 cells was added. […] Also, an AFP+, HLA A2.1-negative hepatocellular carcinoma cell line, Hep3B, that is, a class I-mismatched hepatocellular carcinoma cell line, was also used as a target. […] This small amount of observed Hep3B lysis was eliminated by adding an excess of cold K562 cells, in contrast to the retention of specific killing of HepG2 when cold K562 cells were added.

[4] = target: T1, HLA A2.1 (Homo sapiens, UniProt P04439, D140Y/D185E/D98H/E176V/E277Q/G131W/G231S/I119V/I121R/I166T/I218V/L300P/L318F/N151K/N90K/P208A/P217A/Q86G/Q94H/R138H/R169H/T345S); experiment: EBV lymphoblastoid cell off-kinetics assay; assay type: binding; conditions: for Time of Peptide Stability on Lymphoblastoid Cells: pulsed at 200 μM for 1 hour, followed 0, 2, 4 and 6 hours at 37° C., (n.s.) = not stable
Excerpt: The cells were washed at the end of each time point and stained for HLA A2 with the BB7.2 antibody.

[5] = target: T1, HLA A2.1; experiment: T2 cell stabilization assay; assay type: binding; conditions: peptide tested 0.1 μM-100 μM; flow cytometry with BB7.2; (n.s.) = not stable

**Q.** Which “peptide specificity of CTL culture” value [1] does the source give for “GVALQTMKV (listed as Homo sapiens) [AFP49V9, single amino acid substitution in position 9 of AFP49]” here?
**A.** showed peptide specificity

**Q.** What about the “killing of M202/AdVhAFP compared with AFP49 peptide-specific CTL cultures” value [2] of the same sequence?
**A.** even more effectively

**Q.** What about the “killing of M202/AdVhAFP versus M202/RR5” value [2] of the same sequence?
**A.** significantly more killing of M202 cells transduced with AdVhAFP

**Q.** Which “AFP+/HLA A2.1+ HepG2 Cytotoxicity” value ([3]; E:T 10:1) does the source give for MKWVESIFL [AFP38] here?
**A.** 0%

**Q.** And the “AFP+/HLA A2.1+ HepG2 Cytotoxicity” value ([3]; E:T 50:1)?
**A.** 12%

**Q.** Which “AFP+/HLA A2.1+ HepG2 Cytotoxicity” value ([3]; E:T 10:1) does the source give for PVNPGVGQC [AFP39] here?
**A.** 12%

**Q.** What about the “AFP+/HLA A2.1+ HepG2 Cytotoxicity” value ([3]; E:T 50:1) of the same sequence?
**A.** 29%

**Q.** With “GVALQTMKL (listed as Homo sapiens) [AFP49L9, single amino acid substitution in position 9 of AFP49]” as the sequence, how does the “killing of M202/AdVhAFP compared with AFP49 peptide-specific CTL cultures” value [2] read?
**A.** even more effectively

**Q.** What about the “killing of M202/AdVhAFP versus M202/RR5” value [2] of the same sequence?
**A.** significantly more killing of M202 cells transduced with AdVhAFP

**Q.** How did the “AFP+/HLA A2.1+ HepG2 Cytotoxicity” value ([3]; E:T 10:1) turn out when FQAITVTKL [AFP45] was run?
**A.** 9%

**Q.** What about the “AFP+/HLA A2.1+ HepG2 Cytotoxicity” value ([3]; E:T 50:1) of the same sequence?
**A.** 27%

**Q.** What does the source list for “ILLWAARYD [AFP18, residues 178-186 of hAFP]”?
**A.** Time of Peptide Stability on Lymphoblastoid Cells [4]: >6 h; Minimum Concentration of Peptide to Stabilize A2 on T2 cells [5]: (n.s.)

**Q.** For KLVLDVAHV [AFP4], which “AFP+/HLA A2.1+ HepG2 Cytotoxicity” value ([3]; E:T 5:1) is on record?
**A.** 4%

**Q.** What about the “AFP+/HLA A2.1+ HepG2 Cytotoxicity” value ([3]; E:T 20:1) of the same sequence?
**A.** 7%

**Q.** Which “AFP+/HLA A2.1+ HepG2 Cytotoxicity” value ([3]; E:T 10:1) does the source give for GVALQTMKQ [AFP49] here?
**A.** 17%

**Q.** What about the “AFP+/HLA A2.1+ HepG2 Cytotoxicity” value ([3]; E:T 50:1) of the same sequence?
**A.** 45%

**Q.** What does the source list for “YIQESQALA [AFP13, residues 404-412 of hAFP]”?
**A.** Time of Peptide Stability on Lymphoblastoid Cells [4]: >2 h; Minimum Concentration of Peptide to Stabilize A2 on T2 cells [5]: 10.0 µM

**Q.** Which “off-kinetics (in words)” value [4] does the source give for “QLTSSELMAI [AFP14, residues 441-450 of hAFP]” here?
**A.** slow off-kinetics

**Q.** And the “Time of Peptide Stability on Lymphoblastoid Cells” value (“Time of Peptide Stability” for short) [4]?
**A.** >2 h

**Q.** What about the “Minimum Concentration of Peptide to Stabilize A2 on T2 cells” value (from here on “Minimum Concentration of Peptide”) [5] of the same sequence?
**A.** 50.0 µM

**Q.** How did the “AFP+/HLA A2.1+ HepG2 Cytotoxicity” value ([3]; E:T 5:1) turn out when FMNKFIYEI [AFP5] was run?
**A.** 4%

**Q.** What about the “AFP+/HLA A2.1+ HepG2 Cytotoxicity” value ([3]; E:T 20:1) of the same sequence?
**A.** 7%

**Q.** With NLVKQKPQI [AFP23] as the sequence, how does the “AFP+/HLA A2.1+ HepG2 Cytotoxicity” value ([3]; E:T 5:1) read?
**A.** 2%

**Q.** And the “AFP+/HLA A2.1+ HepG2 Cytotoxicity” value ([3]; E:T 20:1)?
**A.** 15%

**Q.** What does the source list for KQEFLINLV [AFP37]?
**A.** AFP+/HLA A2.1+ HepG2 Cytotoxicity ([3]; E:T 5:1): 0%; AFP+/HLA A2.1+ HepG2 Cytotoxicity ([3]; E:T 25:1): 2%

**Q.** For “KMVKDALTAI [AFP64, residues 65-74 of hAFP]”, which “Time of Peptide Stability” value [4] is on record?
**A.** (n.s.)

**Q.** And the “Minimum Concentration of Peptide” value [5]?
**A.** 100 µM

**Q.** Which results are given for “TLSNKITEC [AFP60, residues 294-302 of hAFP]”?
**A.** Time of Peptide Stability on Lymphoblastoid Cells [4]: (n.s.); Minimum Concentration of Peptide to Stabilize A2 on T2 cells [5]: 50 µM

**Q.** With “SLVVDETYV [AFP17, residues 514-522 of hAFP]” as the sequence, how does the “Time of Peptide Stability” value [4] read?
**A.** (n.s.)

**Q.** And the “Minimum Concentration of Peptide” value [5]?
**A.** 1.0 µM

**Q.** “FQKLGEYYL [AFP34, residues 419-427 of hAFP]” was tested. Which “Time of Peptide Stability” value [4] did it give?
**A.** (n.s.)

**Q.** And the “Minimum Concentration of Peptide” value [5]?
**A.** 100 µM

**Q.** With “YICSQQDTL [AFP28, residues 287-295 of hAFP]” as the sequence, how does the “Time of Peptide Stability” value [4] read?
**A.** 2 h

**Q.** And the “Minimum Concentration of Peptide” value [5]?
**A.** 50 µM

**Q.** For “KELRESSLL [AFP16, residues 211-219 of hAFP]”, which “Time of Peptide Stability” value [4] is on record?
**A.** 2 h

**Q.** And the “Minimum Concentration of Peptide” value [5]?
**A.** (n.s.)

**Q.** Which “AFP+/HLA A2.1+ HepG2 Cytotoxicity” value ([3]; E:T 5:1) does the source give for TMKQEFLINL [AFP22] here?
**A.** 9%

**Q.** What about the “AFP+/HLA A2.1+ HepG2 Cytotoxicity” value ([3]; E:T 20:1) of the same sequence?
**A.** 24%

**Q.** With “FVQEATYKF [AFP8, residues 54-62 of hAFP]” as the sequence, how does the “Time of Peptide Stability” value [4] read?
**A.** >2 h

**Q.** And the “Minimum Concentration of Peptide” value [5]?
**A.** (n.s.)

**Q.** What does the source list for LLNFTESRT [AFP7]?
**A.** AFP+/HLA A2.1+ HepG2 Cytotoxicity ([3]; E:T 10:1): 6%; AFP+/HLA A2.1+ HepG2 Cytotoxicity ([3]; E:T 50:1): 15%
